The record followed here is patent US10221426B2, “Constitutively active PYR/PYL receptor proteins for improving plant stress tolerance” (The Regents of the University of California, priority 2009, dated 2019).

The assay relates to PYR/PYL receptors PYR1, PYL2, PYL3, and/or PYL4. Kind of assay: Yeast two hybrid agonist screens (conventional and halo assays; compound library and plant extracts). Format: cell-based, Arabidopsis. The text has this:
We next investigated whether other compounds besides ABA and pyrabactin could act as agonists of PYR/PYL proteins. Yeast two hybrid strains expressing ABA-receptors and type 2 C protein phosphatases in the appropriate vectors can be used to monitor activation of ABA receptors. These yeast strains therefore create a facile screening system for the identification of cell permeant compounds that act as ABA agonists, i.e. compounds that promote binding of PYR/PYL family members to their protein phosphatase targets. […]
To conduct these agonist assays, screening compounds are added to microtiter wells and appropriate yeast growth media are added. The wells are then seeded with PYR/PYL-PP2C strains and agonist activity is monitored after growth of the strains on the chemical-containing medium. […]
Using a combination of the conventional and halo assays as described above, 65,000 screening compounds were tested for activation of PYR1, PYL2, PYL3 or PYL4 expressing yeast two hybrid strains. Hit compounds that activated any of the yeast strains were retested on all 4 yeast strains and activity assessed qualitatively using X-gal staining assays. […]

As to copaenoic acid, the “activation of PYR/PYL yeast two hybrid strains” value is given as “naturally occurring ABA agonist”.
